Activity calls are given as the source filed them. No cut-off for these calls is given here.
Experiments:
NCI-H522 [1] = experiment: Growth inhibition of human NCI-H522 cells at 10 uM measured after 48 hrs by sulforhodamine B assay; assay type: functional, cell-based
NCI-H522 [2] = experiment: Growth inhibition of human NCI-H522 cells measured after 48 hrs by sulforhodamine B assay; assay type: functional; conditions: for CC50: read-out: LC50 (the source's name)
SF-539 [3] = experiment: Growth inhibition of human SF-539 cells measured after 48 hrs by sulforhodamine B assay; assay type: functional; conditions: for CC50: read-out: LC50 (the source's name)
SF-539 [4] = experiment: Growth inhibition of human SF-539 cells at 10 uM measured after 48 hrs by sulforhodamine B assay; assay type: functional, cell-based
NCI/ADR-RES [5] = experiment: Growth inhibition of human NCI-ADR-RES cells measured after 48 hrs by sulforhodamine B assay; assay type: functional; conditions: for CC50: read-out: LC50 (the source's name)
NCI/ADR-RES [6] = experiment: Growth inhibition of human NCI-ADR-RES cells at 10 uM measured after 48 hrs by sulforhodamine B assay; assay type: functional, cell-based
[7] = Cytotoxicity against human HaCaT cells assessed as reduction in cell viability measured after 48 hrs by MTT assay; assay type: toxicity, cell-based
MDA-MB-435 [8] = experiment: Growth inhibition of human MDA-MB-435 cells at 10 uM measured after 48 hrs by sulforhodamine B assay; assay type: functional, cell-based
MDA-MB-231 [9] = experiment: Induction of morphological changes in human MDA-MB-231 cells assessed as loss of cell polarity at 10 uM measured after 24 hrs; assay type: functional, cell-based
MDA-MB-231 [10] = experiment: Induction of apoptosis in human MDA-MB-231 cells assessed as late apoptotic cells at 10 uM measured after 24 hrs by Annexin V/7-AAD double staining based muse cell analyzer method (reference value: 1.44%); assay type: functional
MDA-MB-231 [11] = experiment: Cell cycle arrest in human MDA-MB-231 cells assessed as accumulation of cells at G2/M phase at 10 uM measured after 24 hrs by Muse cell analyzer based assay (reference value: 27.3%); assay type: functional
Sus scrofa [12] = species: Sus scrofa; experiment: Inhibition of porcine brain tubulin polymerization assessed as microtubule destabilization by measuring relative fluorescence unit at 10 uM measured at 60 secs interval for 60 mins in presence of GTP by fluorescence assay
MDA-MB-231 [13] = experiment: Induction of apoptosis in human MDA-MB-231 cells assessed as viable cells at 10 uM measured after 24 hrs by Annexin V/7-AAD double staining based muse cell analyzer method (reference value: 96.21%); assay type: functional; conditions: read-out: Activity
MDA-MB-231 [14] = experiment: Induction of apoptosis in human MDA-MB-231 cells assessed as early apoptotic cells at 10 uM measured after 24 hrs by Annexin V/7-AAD double staining based muse cell analyzer method (reference value: 1.64%); assay type: functional
Sus scrofa [15] = species: Sus scrofa; experiment: Inhibition of porcine brain tubulin polymerization assessed as microtubule destabilization at 10 uM measured at 60 secs interval for 60 mins in presence of GTP by fluorescence assay
SK-MEL-5 [16] = experiment: Growth inhibition of human SK-MEL-5 cells measured after 48 hrs by sulforhodamine B assay; assay type: functional; conditions: for CC50: read-out: LC50 (the source's name)
MDA-MB-231 [17] = experiment: Cell cycle arrest in human MDA-MB-231 cells assessed as accumulation of cells at S phase at 10 uM measured after 24 hrs by Muse cell analyzer based assay (reference value: 12.9%); assay type: functional
MDA-MB-231 [18] = experiment: Cytotoxicity against human MDA-MB-231 cells assessed as reduction in cell viability measured after 48 hrs by MTT assay; assay type: functional, cell-based; conditions: MDA-MB-231, 48 h
COLO 205 [19] = experiment: Growth inhibition of human COLO 205 cells at 10 uM measured after 48 hrs by sulforhodamine B assay; assay type: functional, cell-based
COLO 205 [20] = experiment: Growth inhibition of human COLO 205 cells measured after 48 hrs by sulforhodamine B assay; assay type: functional; conditions: for CC50: read-out: LC50 (the source's name)
MDA-MB-231 [21] = experiment: Cell cycle arrest in human MDA-MB-231 cells assessed as accumulation of cells at G0/G1 phase at 10 uM measured after 24 hrs by Muse cell analyzer based assay (reference value: 59.7%); assay type: functional
SK-MEL-5 [22] = experiment: Growth inhibition of human SK-MEL-5 cells at 10 uM measured after 48 hrs by sulforhodamine B assay; assay type: functional, cell-based
MDA-MB-231 [23] = experiment: Induction of apoptosis in human MDA-MB-231 cells assessed as necrotic cells at 10 uM measured after 24 hrs by Annexin V/7-AAD double staining based muse cell analyzer method (reference value: 0.72%); assay type: functional
MDA-MB-435 [24] = experiment: Growth inhibition of human MDA-MB-435 cells measured after 48 hrs by sulforhodamine B assay; assay type: functional
SF-295 [25] = experiment: Growth inhibition of human SF-295 cells at 10 uM measured after 48 hrs by sulforhodamine B assay; assay type: functional, cell-based
SF-295 [26] = experiment: Growth inhibition of human SF-295 cells measured after 48 hrs by sulforhodamine B assay; assay type: functional; conditions: read-out: LC50 (the source's name)

Q: Which “growth inhibition (GI)” value (NCI-H522 [1]) does the source give for `O=C(N/N=C/c1ccc(Cl)s1)c1[nH]c2ccc(Br)cc2c1-c1ccccc1` here?
A: Active

Q: What about the GI50 (NCI-H522 [2]) of the same compound?
A: < 0.1 µM

Q: What about the CC50 (NCI-H522 [2]) of the same compound?
A: > 10 µM

Q: What about the GI50 (SF-539 [3]) of the same compound?
A: < 0.1 µM

Q: And the CC50 (SF-539 [3])?
A: > 10 µM

Q: And the “growth inhibition (GI)” value (SF-539 [4])?
A: Active

Q: And the GI50 (NCI/ADR-RES [5])?
A: < 0.1 µM

Q: And the CC50 (NCI/ADR-RES [5])?
A: > 10 µM

Q: And the “growth inhibition (GI)” value (NCI/ADR-RES [6])?
A: Active

Q: With `COc1ccc(/C=N/NC(=O)c2[nH]c3ccc(Br)cc3c2-c2ccccc2)s1` as the compound, how does the IC50 at 48 h [7] read?
A: 0.34 µM

Q: What about the “growth inhibition (GI)” value (NCI-H522 [1]) of the same compound?
A: Active

Q: What about the “growth inhibition (GI)” value (MDA-MB-435 [8]) of the same compound?
A: Active

Q: What about the Activity (MDA-MB-231 [9]) of the same compound?
A: Active

Q: And the Activity (MDA-MB-231 [10])?
A: 6.21%

Q: And the Activity (MDA-MB-231 [11])?
A: 70.7%

Q: What about the RFU (Sus scrofa [12]) of the same compound?
A: 45 a.u.

Q: And the viability at 10 µM (MDA-MB-231 [13])?
A: 85.2%

Q: What about the Activity (MDA-MB-231 [14]) of the same compound?
A: 3.48%

Q: And the inhibition (Sus scrofa [15])?
A: inactive

Q: What about the GI50 (SK-MEL-5 [16]) of the same compound?
A: 0.0523 µM

Q: And the CC50 (SK-MEL-5 [16])?
A: > 100 µM

Q: What about the GI50 (NCI-H522 [2]) of the same compound?
A: 0.0193 µM

Q: And the CC50 (NCI-H522 [2])?
A: > 100 µM

Q: What about the Activity (MDA-MB-231 [17]) of the same compound?
A: 11.2%

Q: What about the IC50 (MDA-MB-231 [18]) of the same compound?
A: 0.56 µM

Q: And the “growth inhibition (GI)” value (COLO 205 [19])?
A: Active

Q: And the GI50 (COLO 205 [20])?
A: 0.191 µM

Q: What about the CC50 (COLO 205 [20]) of the same compound?
A: 0.719 µM

Q: What about the Activity (MDA-MB-231 [21]) of the same compound?
A: 17.9%

Q: And the “growth inhibition (GI)” value (SK-MEL-5 [22])?
A: Active

Q: What about the Activity (MDA-MB-231 [23]) of the same compound?
A: 5.13%

Q: What about the GI50 (MDA-MB-435 [24]) of the same compound?
A: 0.0253 µM

Q: And the CC50 (MDA-MB-435 [24]; read-out: LC50 (the source's name))?
A: > 100 µM

Q: Which results are given for `O=C(N/N=C/c1ccc(-c2ccc(O)cc2)o1)c1[nH]c2ccc(Br)cc2c1-c1ccccc1`?
A: growth inhibition (GI) (SF-295 [25]): Active; RFU (Sus scrofa [12]): 45 a.u.; CC50 (SK-MEL-5 [16]): 4.14 µM; growth inhibition (GI) (COLO 205 [19]): Active; CC50 (COLO 205 [20]): 7.21 µM; CC50 (SF-295 [26]): 8.09 µM; growth inhibition (GI) (SK-MEL-5 [22]): Active

Q: For `O=C(N/N=C/c1ccc(Br)s1)c1[nH]c2ccc(Br)cc2c1-c1ccccc1`, which “growth inhibition (GI)” value (NCI-H522 [1]) is on record?
A: Active

Q: And the GI50 (NCI-H522 [2])?
A: < 0.1 µM

Q: What about the CC50 (NCI-H522 [2]) of the same compound?
A: > 10 µM

Q: And the GI50 (SF-539 [3])?
A: < 0.1 µM

Q: And the CC50 (SF-539 [3])?
A: > 10 µM

Q: What about the “growth inhibition (GI)” value (SF-539 [4]) of the same compound?
A: Active

Q: And the GI50 (NCI/ADR-RES [5])?
A: < 0.1 µM

Q: What about the CC50 (NCI/ADR-RES [5]) of the same compound?
A: > 10 µM

Q: What about the “growth inhibition (GI)” value (NCI/ADR-RES [6]) of the same compound?
A: Active

Reference: ChEMBL document CHEMBL5576112, “Synthesis, in silico, in vitro evaluation of furanyl- and thiophenyl-3-phenyl-1H-indole-2-carbohydrazide derivatives as tubulin inhibitors and anticancer agents” (RSC Med Chem, 2024)
